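Tested at 5 concentrations; 48 h exposure; 96-well plates; endpoints linearly interpolated, else capped at highest concentration. The concentration for 50% growth inhibition is given as GI50.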 The source made the active and inactive calls. Rule as the data show it: active = GI50 up to about 1.1 µM and inactive = higher.
How the values were obtained:
Experiment in all cases: DTP human tumour cell line panel, 48 h
PC-3 = system: PC-3
HCT-15 = system: HCT-15
MDA-N = system: MDA-N
HCC 2998 = system: HCC 2998
NCI-H23 = system: NCI-H23
NCI-H460 = system: NCI-H460
MOLT-4 = system: MOLT-4
OVCAR-3 = system: OVCAR-3
SK-OV-3 = system: SK-OV-3
DU-145 = system: DU-145
HCT-116 = system: HCT-116
SF-295 = system: SF-295
Hs-578T = system: Hs-578T
SK-MEL-2 = system: SK-MEL-2
RPMI-8226 = system: RPMI-8226
IGROV-1 = system: IGROV-1
UACC-62 = system: UACC-62
HL-60 = system: HL-60
SF-539 = system: SF-539
BT-549 = system: BT-549

SMILES | GI50 (PC-3) | GI50 (HCT-15) | GI50 (MDA-N) | GI50 (HCC 2998) | GI50 (NCI-H23) | GI50 (NCI-H460) | GI50 (MOLT-4) | GI50 (OVCAR-3) | GI50 (SK-OV-3) | GI50 (DU-145) | GI50 (HCT-116) | GI50 (SF-295) | GI50 (Hs-578T) | GI50 (SK-MEL-2) | GI50 (RPMI-8226) | GI50 (IGROV-1) | GI50 (UACC-62) | GI50 (HL-60) | GI50 (SF-539) | GI50 (BT-549)
CC1(CO)COC(C)(C)OC1 | > 100 µM (inactive) | > 100 µM | > 100 µM (inactive) | > 100 µM (inactive) | > 100 µM (inactive) | > 100 µM (inactive) | > 100 µM (inactive) | > 100 µM (inactive) | > 100 µM (inactive) | > 100 µM (inactive) | > 100 µM (inactive) | > 100 µM (inactive) | > 100 µM (inactive) |  |  |  |  |  |  | 
COc1ccc(/N=N/c2c(-c3ccccc3)nn(C(=O)CC(=O)Nc3ccc(OC)cc3)c2-c2ccccc2)cc1 |  | > 100 µM |  | > 100 µM (inactive) | 33 µM (inactive) | > 100 µM (inactive) | 31.8 µM (inactive) | > 100 µM (inactive) | 40.6 µM (inactive) |  | 60 µM (inactive) | 21.1 µM (inactive) |  | 88.3 µM (inactive) | > 100 µM (inactive) | 39.9 µM (inactive) | 42.1 µM (inactive) | > 100 µM (inactive) | 18.6 µM (inactive) | 
C=C(Br)CNC(=O)CCC(=O)NCC(=C)Br | > 100 µM (inactive) | > 100 µM | > 100 µM (inactive) | > 100 µM (inactive) | > 100 µM (inactive) | > 100 µM (inactive) | > 100 µM (inactive) | > 100 µM (inactive) | > 100 µM (inactive) | > 100 µM (inactive) | > 100 µM (inactive) | > 100 µM (inactive) | > 100 µM (inactive) | > 100 µM (inactive) | > 100 µM (inactive) | > 100 µM (inactive) | > 100 µM (inactive) | > 100 µM (inactive) | > 100 µM (inactive) | 
SC1=NC2=C(CSC/C2=C\c2ccc(Cl)cc2)C(c2ccc(Cl)cc2)N1 (stereo not drawn) | 31.3 µM (inactive) | 34 µM | 33.5 µM (inactive) | 25.4 µM (inactive) | 46.9 µM (inactive) | 31.4 µM (inactive) | 31.1 µM (inactive) | 41.2 µM (inactive) | 55.8 µM (inactive) | 39.4 µM (inactive) | 27.5 µM (inactive) | 42.2 µM (inactive) | 45.3 µM (inactive) | 34.2 µM (inactive) | 37 µM (inactive) | 51.8 µM (inactive) | 49 µM (inactive) | 24.7 µM (inactive) |  | 
CON(C(=O)OC(C)(C)C)c1ccccc1 | > 100 µM (inactive) | > 100 µM |  | > 100 µM (inactive) | > 100 µM (inactive) | > 100 µM (inactive) | > 100 µM (inactive) | > 100 µM (inactive) | > 100 µM (inactive) | > 100 µM (inactive) | > 100 µM (inactive) | > 100 µM (inactive) | > 100 µM (inactive) | > 100 µM (inactive) | > 100 µM (inactive) | > 100 µM (inactive) | > 100 µM (inactive) | > 100 µM (inactive) |  | 43.6 µM (inactive)
O=C(CSCC(=O)N/N=C/c1cccc(C(F)(F)F)c1)N/N=C/c1cccc(C(F)(F)F)c1 | > 100 µM (inactive) | > 100 µM |  | > 100 µM (inactive) | > 100 µM (inactive) |  |  |  | > 100 µM (inactive) | > 100 µM (inactive) |  | > 100 µM (inactive) | > 100 µM (inactive) | > 100 µM (inactive) |  | > 100 µM (inactive) | > 100 µM (inactive) | > 100 µM (inactive) | > 100 µM (inactive) | > 100 µM (inactive)
CCCCNC(=S)Nc1nc(C(=O)NNS(=O)(=O)c2ccccc2)cs1 | 29 µM (inactive) | 36.2 µM |  | 30.5 µM (inactive) | 44 µM (inactive) |  | 34.8 µM (inactive) | 24.2 µM (inactive) | 36.6 µM (inactive) | 35.5 µM (inactive) | 26.2 µM (inactive) | 36.2 µM (inactive) |  | 22.6 µM (inactive) | 31.2 µM (inactive) | 24.9 µM (inactive) | 22.9 µM (inactive) |  | 33.6 µM (inactive) | 32.7 µM (inactive)
O=S(=O)(O)c1cc(S(=O)(=O)O)c2cc(/N=N/c3ccc(/N=N/c4ccc(/C=C/c5ccc(/N=[N+](/[O-])c6ccc(/C=C/c7ccc(/N=N/c8ccc(/N=N/c9ccc%10cc(S(=O)(=O)O)cc(S(=O)(=O)O)c%10c9)cc8)cc7S(=O)(=O)O)c(S(=O)(=O)O)c6)cc5S(=O)(=O)O)c(S(=O)(=O)O)c4)cc3)ccc2c1 |  | 52.6 µM |  | > 61.2 µM (inactive) | > 77.8 µM (inactive) | > 40.3 µM (inactive) | > 79.3 µM (inactive) | > 31.6 µM (inactive) | > 22.3 µM (inactive) |  | > 28.6 µM (inactive) | > 33 µM (inactive) |  | 83.9 µM (inactive) | 46.5 µM (inactive) | > 100 µM (inactive) | 7.93 µM (inactive) | 54.1 µM (inactive) | > 59 µM (inactive) | 
C1=Cc2nc1c(-c1ccccc1)c1ccc([n-]1)c(-c1ccccc1)c1nc(c(-c3ccccc3)c3ccc([n-]3)c2-c2ccccc2)C=C1.[Zn+2] |  | > 100 µM |  | > 100 µM (inactive) | > 100 µM (inactive) | > 100 µM (inactive) | > 100 µM (inactive) | > 100 µM (inactive) | > 100 µM (inactive) |  | > 100 µM (inactive) | > 100 µM (inactive) |  | > 100 µM (inactive) | 75.7 µM (inactive) | > 100 µM (inactive) | > 100 µM (inactive) | 45 µM (inactive) | > 100 µM (inactive) | 

From ChEMBL document CHEMBL1201862, “PubChem BioAssay data set” (2004)
